Assays:
Type in all cases: cell-based
[1] = system: Mycobacterium smegmatis (ATCC # 19420); test: End-point optical density of Mycobacterium smegmatis with N-alkyl alkanolamines (590 nm, 72 h); conditions: for end-point optical density: 590 nm, after 72 hours, pH 8.5, tetrazolium dye
[2] = system: Aureobasidium pullulans (ATCC 12536); test: End-point optical density of Aureobasidium pullulans with MIT/CMIT plus alkanolamine; conditions: SAB media pH 8.5
Protocol: The impact of N-alkylalkanolamines on the control of the bacterial species Aureobasidium pullulans (ATCC 12536), a bacteria common in water-oil systems, was evaluated by measuring optical absorbance of samples treated with various concentrations of N-alkyl alkanolamines. […] SAB media at pH 8.5 (Tris buffer) was employed. Table 8 summarizes measurement of end-point optical density after 24 hours and 48 hours: […]

[3] = system: Pseudomonas aeruginosa (ATCC 10145); test: Maximum growth slope of Pseudomonas aeruginosa with Proxel DB20 (BIT) plus alkanolamine; conditions: pH 8.5, TSB, 24 hour
Protocol: A culture of Pseudomonas aeruginosa (ATCC 10145) at pH=8.5 in TSB (trypticase soy broth) media was prepared. The biocide Proxel DB20 (20% suspension of benzoisothiazolone (BIT) in water), as sold by Avecia, was added at varying concentrations in combination with 1000 ppm or 2000 ppm of the alkanolamines N-butylaminoethanol (BAE), 2-amino-2-methyl-1-propanol (AMP), dibutylaminoethanol (DBAE) or n-octylaminoethanol (OAE). Optical density measurements were taken every 15 minutes over a 24 hour time period (total of 96 data points). The maximum growth slope was calculated by taking the 10 contiguous data points that result in the highest growth slope (units of OD per time) over a 24 hour period. Those 10 data points were subjected to a least squares linear fit to calculate the maximum growth slope.

[4] = system: Mycobacterium marinum (ATCC # 19420); test: End-point optical density and MIC, Mycobacterium marinum (660 nm, 72 h); conditions: pH 8.5; for MIC (estimate of the concentration range in which the amine starts to inhibit growth): 72 hours; for end-point optical density: 660 nm, after 72 hours
Protocol: (§1) The impact of N-alkylalkanolamines on the control of the bacterial species Mycobacterium smegmatis (ATCC # 19420), a bacteria common in water-oil systems, was evaluated by measuring optical absorbance of samples treated with various alkyl ethanolaminesis DCHA=Dicyclohexylamine, OAE=Octylaminoethanol, ODEA=Octyldiethanolamine. Bacterial concentration was monitored indirectly via optical absorbance at 660 nm. The values reported are end-point optical densities in milliOD units after 48 hours. The media consisted of a standardized solution of clear nutrient broth (Middlebrook 7H10 with OADC supplement), amine, buffer (Tris) and water. The pH was adjusted initially to 8.5 with Tris buffer. The first column in the Table gives the amine concentration in ppm. The final two columns give data for cells that also contained 2 grams per liter of boric acid. In all cases, the values are averages of at least three replicates. The final row of the Table gives an estimate of the concentration range in which the amine in question starts to inhibit the growth of this bacterial species.
The impact of the N-alkylalkanolamines of Example 6 on the control of the bacterial species Mycobacterium marinum (ATCC # 19420), bacteria common in water-oil systems, was evaluated as described above in Example 6. Bacterial concentration in the experimental media was monitored indirectly via optical absorbance at 660 nm. The values reported are end-point optical densities in milliOD units after 72 hours. The media consisted of a standardized solution of clear nutrient broth (Middlebrook 7H10 with OADC supplement), amine, buffer (Tris) and water. The pH was adjusted initially to 8.5 with Tris buffer. The first column in the Table gives the amine concentration in ppm. In all cases, the values are averages of at least three replicates. The final row of the Table gives an estimate of the concentration range in which the amine in question starts to inhibit the growth of this bacterial species.

[5] = system: Mycobacterium smegmatis (ATCC # 19420); test: End-point optical density and MIC, Mycobacterium smegmatis (660 nm, 48 h); conditions: for MIC (estimate of the concentration range in which the amine starts to inhibit growth): 48 hours; for end-point optical density: 660 nm, after 48 hours
Protocol: as §1

[6] = system: Pseudomonas Aeruginosa (ATCC27853); test: Microtiter plate growth of Pseudomonas Aeruginosa with amines and GROTAN; conditions: for growth of Pseudomonas Aeruginosa (Table 1 entry): pH 8.5, 24 hours
[7] = amine 1000 ppm plus BIT 150 ppm
[8] = amine 1000 ppm plus BIT 250 ppm
[9] = amine 1000 ppm plus BIT 500 ppm
[10] = amine 2000 ppm plus BIT 150 ppm
[11] = amine 2000 ppm plus BIT 250 ppm
[12] = amine 2000 ppm plus BIT 500 ppm
[13] = amine 2000 ppm plus GROTAN 100 ppm
[14] = amine 2000 ppm plus GROTAN 250 ppm
[15] = amine 2000 ppm plus GROTAN 500 ppm
[16] = amine 2000 ppm plus GROTAN 1000 ppm
[17] = amine 2000 ppm plus GROTAN 2000 ppm
[18] = amine 4000 ppm plus GROTAN 100 ppm
[19] = amine 4000 ppm plus GROTAN 250 ppm
[20] = amine 4000 ppm plus GROTAN 500 ppm
[21] = amine 4000 ppm plus GROTAN 1000 ppm
[22] = amine 4000 ppm plus GROTAN 2000 ppm
[23] = amine 500 ppm plus 2 grams per liter of boric acid
[24] = amine 1000 ppm plus 2 grams per liter of boric acid
[25] = amine 2000 ppm plus 2 grams per liter of boric acid
[26] = with 2 grams per liter of boric acid

Structure (SMILES)	end-point optical density ([1]; amine 470 ppm)	end-point optical density ([1]; amine 940 ppm)	end-point optical density ([1]; amine 1880 ppm)	end-point optical density ([1]; amine 3750 ppm)	end-point optical density ([1]; amine 7500 ppm)	maximum growth slope [3, 7]	maximum growth slope [3, 8]	maximum growth slope [3, 9]	maximum growth slope ([3]; amine 1000 ppm, BIT 0 ppm)	MIC (estimate of the concentration range in which the amine starts to inhibit growth) [4]	end-point optical density ([4]; amine 400 ppm)	end-point optical density ([4]; amine 800 ppm)	end-point optical density ([4]; amine 1200 ppm)	end-point optical density ([4]; amine 2000 ppm)	end-point optical density ([4]; amine 4000 ppm)	MIC (estimate of the concentration range in which the amine starts to inhibit growth) ([5]; pH 8.5, no boric acid)	end-point optical density ([5]; amine 500 ppm, pH 8.5)	end-point optical density ([5]; amine 1000 ppm, pH 8.5)	end-point optical density ([5]; amine 1500 ppm, pH 8.5)	end-point optical density ([5]; amine 2000 ppm, pH 8.5)	other results
CCCCN(CCO)CCCC [DBAE, dibutylaminoethanol]	2000 milliOD	2000 milliOD	2000 milliOD	1900 milliOD	1200 milliOD	0.221 OD per time	0.255 OD per time	0.143 OD per time	0.228 OD per time												end-point optical density ([2]; amine 1000 ppm plus 50 ppm MIT/CMIT, 24 hours): 0.3; end-point optical density ([2]; amine 1000 ppm plus 50 ppm MIT/CMIT, 48 hours): 0.4; end-point optical density ([2]; amine 2000 ppm plus 50 ppm MIT/CMIT, 24 hours): 0.2; end-point optical density ([2]; amine 2000 ppm plus 50 ppm MIT/CMIT, 48 hours): 0.2; maximum growth slope [3, 10]: 0.084 OD per time; maximum growth slope [3, 11]: 0.104 OD per time; maximum growth slope [3, 12]: 0.000 OD per time; maximum growth slope ([3]; amine 2000 ppm, BIT 0 ppm): 0.114 OD per time
CCCCCCCCN(CCO)CCO [ODEA, Octyldiethanolamine]										1200-2000 ppm	0.6 milliOD	0.4 milliOD	0.4 milliOD	0.1 milliOD	0 milliOD	500-1000 ppm	0.847 milliOD	0.117 milliOD	0.260 milliOD	0.225 milliOD	
CCCCN(CCO)CCO [BDEA, butyldiethanolamine]																					growth of Pseudomonas Aeruginosa (Table 1 entry) [6, 13]: 0.52; growth of Pseudomonas Aeruginosa (Table 1 entry) [6, 14]: 0.72; growth of Pseudomonas Aeruginosa (Table 1 entry) [6, 15]: 0.79; growth of Pseudomonas Aeruginosa (Table 1 entry) [6, 16]: 0.32; growth of Pseudomonas Aeruginosa (Table 1 entry) [6, 17]: 0.33; growth of Pseudomonas Aeruginosa (Table 1 entry) ([6]; amine 2000 ppm, GROTAN 0 ppm): 0.67; growth of Pseudomonas Aeruginosa (Table 1 entry) [6, 18]: 0.67; growth of Pseudomonas Aeruginosa (Table 1 entry) [6, 19]: 0.51; growth of Pseudomonas Aeruginosa (Table 1 entry) [6, 20]: 0.30; growth of Pseudomonas Aeruginosa (Table 1 entry) [6, 21]: 0.28; growth of Pseudomonas Aeruginosa (Table 1 entry) [6, 22]: 0.33; growth of Pseudomonas Aeruginosa (Table 1 entry) ([6]; amine 4000 ppm, GROTAN 0 ppm): 0.45; enhancement in the biocidal effect of GROTAN ([6]; conclusion from Table 1): provide an enhancement in the biocidal effect of GROTAN®
CC(C)(C)NCCO [TBAE, tert-butylaminoethanol]																					growth of Pseudomonas Aeruginosa (Table 1 entry) [6, 13]: 0.72; growth of Pseudomonas Aeruginosa (Table 1 entry) [6, 14]: 0.69; growth of Pseudomonas Aeruginosa (Table 1 entry) [6, 15]: 0.83; growth of Pseudomonas Aeruginosa (Table 1 entry) [6, 16]: 0.30; growth of Pseudomonas Aeruginosa (Table 1 entry) [6, 17]: 0.35; growth of Pseudomonas Aeruginosa (Table 1 entry) ([6]; amine 2000 ppm, GROTAN 0 ppm): 0.67; growth of Pseudomonas Aeruginosa (Table 1 entry) [6, 18]: 0.58; growth of Pseudomonas Aeruginosa (Table 1 entry) [6, 19]: 0.59; growth of Pseudomonas Aeruginosa (Table 1 entry) [6, 20]: 0.34; growth of Pseudomonas Aeruginosa (Table 1 entry) [6, 21]: 0.28; growth of Pseudomonas Aeruginosa (Table 1 entry) [6, 22]: 0.36; growth of Pseudomonas Aeruginosa (Table 1 entry) ([6]; amine 4000 ppm, GROTAN 0 ppm): 0.55
CCCCCCCCNCCO [OAE, n-octylaminoethanol]	0 milliOD	0 milliOD	0 milliOD	0 milliOD	0 milliOD	0.000 OD per time	0.000 OD per time	0.000 OD per time	0.000 OD per time	1200-2000 ppm	0.4 milliOD	0.4 milliOD	0.4 milliOD	0 milliOD	0 milliOD	<500 ppm	0.184 milliOD	0.149 milliOD	0.213 milliOD	0.226 milliOD	effectiveness against Mycobacteria ([1]; compared with AMP, conclusion from Table 5): markedly more effective than AMP; end-point optical density ([2]; amine 200 ppm plus 50 ppm MIT/CMIT, 24 hours): 0.1; end-point optical density ([2]; amine 200 ppm plus 50 ppm MIT/CMIT, 48 hours): 0.1; end-point optical density ([2]; amine 500 ppm plus 50 ppm MIT/CMIT, 24 hours): 0; end-point optical density ([2]; amine 500 ppm plus 50 ppm MIT/CMIT, 48 hours): 0; maximum growth slope [3, 10]: 0.000 OD per time; maximum growth slope [3, 11]: 0.000 OD per time; maximum growth slope [3, 12]: 0.000 OD per time; maximum growth slope ([3]; amine 2000 ppm, BIT 0 ppm): 0.000 OD per time; end-point optical density [5, 23]: 0.100 milliOD; end-point optical density [5, 24]: 0.121 milliOD; end-point optical density [5, 25]: 0.015 milliOD; end-point optical density ([5]; amine 4000 ppm, pH 8.5): 0.205 milliOD; MIC (estimate of the concentration range in which the amine starts to inhibit growth) [5, 26]: <500 ppm
C1CCC(NC2CCCCC2)CC1 [DCHA, Dicyclohexylamine, reference compound]										>4000 ppm	0.6 milliOD	0.6 milliOD	0.5 milliOD	0.4 milliOD	0.4 milliOD	1500-2000 ppm	1.02 milliOD	0.802 milliOD	0.995 milliOD	0.268 milliOD	end-point optical density [5, 23]: 1.125 milliOD; end-point optical density [5, 24]: 0.855 milliOD; end-point optical density [5, 25]: 0.085 milliOD; MIC (estimate of the concentration range in which the amine starts to inhibit growth) [5, 26]: 1000-2000 ppm

From patent publication US20060005464A1, “Alkyl ethanolamine and biocide combination for hydrocarbon based fuels” (priority 2004, published 2006)
